Measurements reported in patent US10688086B2, “Method for treating cancer with dihydropyridine calcium antagonist” (GERMARK BIOTECHNOLOGY CO., LTD, priority 2016, dated 2020).

Experiments:
[1] = tested on: patients having liver cancer; test: NHIRD statistical analysis of death/survival with vs without Amlodipine, liver cancer; assay type: in vivo, human
HepG2 cells [2] = test: Cell metastasis (Transwell, Calcein AM fluorescence), HepG2; assay type: cell-based; conditions: 10 μM, 48 or 72 hrs
Method: (§1) The HepG2 and Hep3B cells were separately cultured in an insert of the Transwell plate, then added with 10 μM Amlodipine and cultured for 48 or 72 hrs. The insert was placed in a serum-free DMEM medium containing […] Calcien AM. Fluorescent staining was carried out in a culture environment at 37° C. After about 45-60 min, the cells were scraped off with 0.05% Trypsin-EDTA, and the fluorescence intensity at a wavelength of 490 to 520 nm was measured.

HepG2 cells [3] = test: Cell viability (WST-1 72 hrs; PI flow cytometry 48 hrs), HepG2; assay type: cell-based
Method: (§2) Two liver cancer cell lines HepG2 and Hep3B were cultured. The medium used for the culture of the cells was DMEM medium containing 10% fetal bovine serum, 10,000 U/ml penicillin and 10,000 μg/ml streptomycin. The culture occurred in an environment at 37° C. with 5% CO2, and the medium was changed every 2-3 days during the culture. After the cells were cultured to about 70% confluence, they were treated with various concentrations of Amlodipine: 0, 1.5625, 3.125, 6.25, 12.5, 25, and 50 μM for various times: 48, and 72 hrs. After the experiment, the viability of each liver cancer cell line was observed and the cell viability and cell cycle were analyzed. The HepG2 and Hep3B cells treated with various concentrations of Amlodipine for 72 hrs were added to WST-1 reagent. After 330 minutes of reaction, the absorbance at a wavelength of 420-480 nm was measured. The HepG2 and Hep3B cells treated with various concentrations of Amlodipine for 48 hrs were scraped off with 0.05% Trypsin-EDTA, and then added to 2 mg/ml PI solution. The cell viability was analyzed by flow cytometry.

[4] = tested on: patients with gastric cancer; test: NHIRD statistical analysis of death/survival with vs without Amlodipine, gastric cancer; assay type: in vivo, human
Method: In this example, statistical analysis was performed on the statistics of the effects of Amlodipine in the treatment of cancers, using data from the National Health Insurance Research Database (NHIRD) covering detailed healthcare data for the population in Taiwan. Then, the diagnostic data at the time of admission in the database and the database of patients with registered major injuries were used, and statistical analysis was performed using data from patients with gastric cancer.
The dose of Amlodipine used in Example 1 was at least 120 mg/30 days. Therefore, in order to obtain the minimum effective dose, the survival rate of patients treated with Amlodipine for days in 90 days after cancer diagnosis was further statistically analyzed.

Hep3B cells [5] = test: Cell viability (WST-1 72 hrs; PI flow cytometry 48 hrs), Hep3B; assay type: cell-based
Method: as §2

Hep3B cells [6] = test: Cell metastasis (Transwell, Calcein AM fluorescence), Hep3B; assay type: cell-based; conditions: 10 μM, 48 or 72 hrs
Method: as §1

[7] = tested on: patients having bladder cancer; test: NHIRD statistical analysis of death/survival with vs without Amlodipine, bladder cancer; assay type: in vivo, human
Hep3B cells [8] = test: Cell invasion (Transwell, crystal violet), Hep3B; assay type: cell-based; conditions: 10 μM, 72 hrs
Method: The HepG2 and Hep3B cells were separately cultured in the insert of the Transwell plate, then added with 10 μM Amlodipine and cultured for 48 or 72 hrs. The cells on the inner surface of the insert were taken out, and the insert was placed in methanol and stained with a crystal violet solution. […] That is, Amlodipine is effective in slowing the progression of cancers, thereby achieving a therapeutic effect in the treatment of cancers.

liver cancer cells HepG2 = test: Cell cycle analysis by flow cytometry, HepG2; assay type: cell-based
Method: Two liver cancer cell lines HepG2 and Hep3B were cultured. The medium used for the culture of the cells was DMEM medium containing 10% fetal bovine serum, 10,000 U/ml penicillin and 10,000 μg/ml streptomycin. The culture occurred in an environment at 37° C. with 5% CO2, and the medium was changed every 2-3 days during the culture. After the cells were cultured to about 70% confluence, they were treated with various concentrations of Amlodipine: 0, 1.5625, 3.125, 6.25, 12.5, 25, and 50 μM for various times: 48, and 72 hrs. After the experiment, the viability of each liver cancer cell line was observed and the cell viability and cell cycle were analyzed. The cell cycle of each liver cancer cell line treated under different conditions was analyzed by flow cytometry. […] Still further, each liver cancer cell line was treated with Amlodipine at a concentration of 12.5 μM for 0, 12, 24, 36 and 48 hrs, and the cell cycle was analyzed by flow cytometry.

[9] = tested on: patients having breast cancer; test: NHIRD statistical analysis of death/survival with vs without Amlodipine, breast cancer; assay type: in vivo, human
[10] = tested on: patients having lung cancer; test: NHIRD statistical analysis of death/survival with vs without Amlodipine, lung cancer; assay type: in vivo, human
Hep3B cells [11] = test: Western blotting of apoptosis-related proteins, Hep3B; assay type: cell-based; conditions: various concentrations, 24 hours
Method: The expression of apoptosis-related genes in each liver cancer cell line treated with various concentrations of Amlodipine for 24 hours were detected by Western blotting.

[12] = 24/30: Amlodipine at least 24 days within 30 days after cancer diagnosis
[13] = 48/60: Amlodipine at least 48 days within 60 days after cancer diagnosis
[14] = 72/90: Amlodipine at least 72 days within 90 days after cancer diagnosis
[15] = Amlodipine for 20 days within 90 days after diagnosis
[16] = 12.5 μM Amlodipine, treatment time 12 hr
[17] = 12.5 μM Amlodipine, treatment time 24 hr
[18] = 12.5 μM Amlodipine, treatment time 36 hr
[19] = 12.5 μM Amlodipine, treatment time 48 hr

Structure (SMILES): CCOC(=O)C1=C(COCCN)NC(C)=C(C(=O)OC)C1c1ccccc1Cl (centres unmarked) [Amlodipine]
- Crude HR HRs (95% C.I.) [1, 12]: 0.55 (0.53-0.59)
- Crude HR HRs (95% C.I.) [1, 13]: 0.54 (0.51-0.57)
- Crude HR HRs (95% C.I.) [1, 14]: 0.55 (0.52-0.58)
- Crude HR HRs (95% C.I.) [1, 15]: 0.73 (0.69-0.77)
- fluorescence intensity (cell metastasis) vs cells not treated with Amlodipine (HepG2 cells [2]): lower
- Amlodipine concentration at which the best inhibitory effect on the growth of liver cancer cells is achieved (HepG2 cells [3]): greater than or equal to 12.5 μM
- cell viability of liver cancer cells treated with Amlodipine (HepG2 cells [3]; 1.5625-50 μM, 48 and 72 hrs, FIGS. 9, 11, 12): decreased
- Crude HR HRs (95% C.I.) [4, 12]: 0.43 (0.39-0.47)
- Crude HR HRs (95% C.I.) [4, 13]: 0.43 (0.39-0.48)
- Crude HR HRs (95% C.I.) [4, 14]: 0.42 (0.38-0.47)
- Crude HR HRs (95% C.I.) [4, 15]: 0.73 (0.66-0.80)
- Amlodipine concentration at which the best inhibitory effect on the growth of liver cancer cells is achieved (Hep3B cells [5]): greater than or equal to 12.5 μM
- cell viability of liver cancer cells treated with Amlodipine (Hep3B cells [5]; 1.5625-50 μM, 48 and 72 hrs, FIGS. 10, 13-15): decreased
- fluorescence intensity (cell metastasis) vs cells not treated with Amlodipine (Hep3B cells [6]): lower
- Crude HR HRs (95% C.I.) [7, 12]: 0.54 (0.50-0.59)
- Crude HR HRs (95% C.I.) [7, 13]: 0.55 (0.50-0.60)
- Crude HR HRs (95% C.I.) [7, 14]: 0.55 (0.50-0.61)
- Crude HR HRs (95% C.I.) [7, 15]: 0.82 (0.75-0.90)
- fluorescence intensity (cell invasion) vs cells not treated with Amlodipine (Hep3B cells [8]): lower
- Proportion of cell distribution in cell cycle (%) M1: (liver cancer cells HepG2; 1.5625 μM Amlodipine, 48 hrs): 1.58%
- Proportion of cell distribution in cell cycle (%) M2: (liver cancer cells HepG2; 1.5625 μM Amlodipine, 48 hrs): 70.28%
- Proportion of cell distribution in cell cycle (%) M3: (liver cancer cells HepG2; 1.5625 μM Amlodipine, 48 hrs): 8.89%
- Proportion of cell distribution in cell cycle (%) M4: (liver cancer cells HepG2; 1.5625 μM Amlodipine, 48 hrs): 19.34%
- Proportion of cell distribution in cell cycle (%) M1: (liver cancer cells HepG2; 3.125 μM Amlodipine, 48 hrs): 1.36%
- Proportion of cell distribution in cell cycle (%) M2: (liver cancer cells HepG2; 3.125 μM Amlodipine, 48 hrs): 69.60%
- Proportion of cell distribution in cell cycle (%) M3: (liver cancer cells HepG2; 3.125 μM Amlodipine, 48 hrs): 8.91%
- Proportion of cell distribution in cell cycle (%) M4: (liver cancer cells HepG2; 3.125 μM Amlodipine, 48 hrs): 20.23%
- Proportion of cell distribution in cell cycle (%) M1: (liver cancer cells HepG2; 6.25 μM Amlodipine, 48 hrs): 1.91%
- Proportion of cell distribution in cell cycle (%) M2: (liver cancer cells HepG2; 6.25 μM Amlodipine, 48 hrs): 66.92%
- Proportion of cell distribution in cell cycle (%) M3: (liver cancer cells HepG2; 6.25 μM Amlodipine, 48 hrs): 10.28%
- Proportion of cell distribution in cell cycle (%) M4: (liver cancer cells HepG2; 6.25 μM Amlodipine, 48 hrs): 21.01%
- Proportion of cell distribution in cell cycle (%) M1: (liver cancer cells HepG2; 12.5 μM Amlodipine, 48 hrs): 81.27%
- Proportion of cell distribution in cell cycle (%) M2: (liver cancer cells HepG2; 12.5 μM Amlodipine, 48 hrs): 12.49%
- Proportion of cell distribution in cell cycle (%) M3: (liver cancer cells HepG2; 12.5 μM Amlodipine, 48 hrs): 3.31%
- Proportion of cell distribution in cell cycle (%) M4: (liver cancer cells HepG2; 12.5 μM Amlodipine, 48 hrs): 2.95%
- Proportion of cell distribution in cell cycle (%) M1: (liver cancer cells HepG2; [16]): 5.01%
- Proportion of cell distribution in cell cycle (%) M2: (liver cancer cells HepG2; [16]): 76.16%
- Proportion of cell distribution in cell cycle (%) M3: (liver cancer cells HepG2; [16]): 6.10%
- Proportion of cell distribution in cell cycle (%) M4: (liver cancer cells HepG2; [16]): 12.87%
- Proportion of cell distribution in cell cycle (%) M1: (liver cancer cells HepG2; [17]): 16.20%
- Proportion of cell distribution in cell cycle (%) M2: (liver cancer cells HepG2; [17]): 65.01%
- Proportion of cell distribution in cell cycle (%) M3: (liver cancer cells HepG2; [17]): 6.24%
- Proportion of cell distribution in cell cycle (%) M4: (liver cancer cells HepG2; [17]): 12.69%
- Proportion of cell distribution in cell cycle (%) M1: (liver cancer cells HepG2; [18]): 65.46%
- Proportion of cell distribution in cell cycle (%) M2: (liver cancer cells HepG2; [18]): 22.64%
- Proportion of cell distribution in cell cycle (%) M3: (liver cancer cells HepG2; [18]): 4.81%
- Proportion of cell distribution in cell cycle (%) M4: (liver cancer cells HepG2; [18]): 7.22%
- Proportion of cell distribution in cell cycle (%) M1: (liver cancer cells HepG2; [19]): 83.26%
- Proportion of cell distribution in cell cycle (%) M2: (liver cancer cells HepG2; [19]): 11.13%
- Proportion of cell distribution in cell cycle (%) M3: (liver cancer cells HepG2; [19]): 1.73%
- Proportion of cell distribution in cell cycle (%) M4: (liver cancer cells HepG2; [19]): 3.93%
- cell division (cell cycle, in words) (liver cancer cells HepG2; 12.5 μM or more, 48 hrs): most cells were unable to undergo cell division
- Proportion of cell distribution in cell cycle (%) M1: (liver cancer cells HepG2; 25 μM Amlodipine, 48 hrs): 99.75%
- Proportion of cell distribution in cell cycle (%) M2: (liver cancer cells HepG2; 25 μM Amlodipine, 48 hrs): 0.22%
- Proportion of cell distribution in cell cycle (%) M3: (liver cancer cells HepG2; 25 μM Amlodipine, 48 hrs): 0.00%
- Proportion of cell distribution in cell cycle (%) M4: (liver cancer cells HepG2; 25 μM Amlodipine, 48 hrs): 0.94%
- Crude HR HRs (95% C.I.) [9, 12]: 0.54 (0.50-0.59)
- Crude HR HRs (95% C.I.) [9, 13]: 0.53 (0.48-0.57)
- Crude HR HRs (95% C.I.) [9, 14]: 0.50 (0.46-0.55)
- Crude HR HRs (95% C.I.) [9, 15]: 0.91 (0.83-0.99)
- Crude HR HRs (95% C.I.) [10, 12]: 0.66 (0.62-0.70)
- Crude HR HRs (95% C.I.) [10, 13]: 0.62 (0.58-0.67)
- Crude HR HRs (95% C.I.) [10, 15]: 0.85 (0.80-0.90)
- Crude HR HRs (95% C.I.) ([10]; day of treatment with Amlodipine 72/9): 0.62 (0.58-0.66)
- intracellular expression of apoptotic proteins (Western blotting) (Hep3B cells [11]): results in the intracellular expression of apoptotic proteins
